Measurements from patent US20240254119A1 (THIRD HARMONIC BIO, INC., priority 2022, published 2024).

What was measured:
CSF-1R = target: T1, CSF-1R (Homo sapiens, UniProt P07333); assay: Caliper biochemical assay, CSF-1R; details: Table 6
T1 construct: purchased Invitrogen PV3249 (lot 662393N)
In short: (§1)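 Mobility-shift readout: after EDTA quench, fluorescent peptide and product are resolved electrophoretically on a LabChip and measured by fluorescence. Reactions contain enzyme, carboxyfluorescein peptide, ATP, Mn^2+ and compound, run 3 h at 25° C; 100% inhibition control lacks enzyme.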

PDGFRα = target: T2, PDGFRα (Homo sapiens, UniProt P16234); assay: Caliper biochemical assay, PDGFRα; details: Table 6
T2 construct: purchased Millipore 14-467 (lot 26321_ACTI)
In short: as §1

wtKIT = target: T3, wtKIT (Homo sapiens, UniProt P10721); assay: Caliper biochemical assay, wtKIT; details: Table 6, read-out: KIT Biochemical IC50 avg
T3 construct: 1888289AM in the reaction mixtures
In short: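 Mobility-shift read-out: after EDTA stop, fluorescent peptide substrate and product resolved electrophoretically on LabChip 3000. Reaction ran 3 h at 25° C with 400 μM ATP, Mn^2+ cofactor, 5.0 nM wtKIT, 1 μM FAM-peptide, pH 7.5 HEPES buffer; no-enzyme wells defined full inhibition.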

Kinetic solubility assay = assay type: physicochemical; details: kinetic solubility, 50 mM PB (pH 7.4), shaken 24 hours at RT
In short: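 Concentration in the filtrate was determined by UPLC-UV or HPLC-UV with a standard curve. Before that, compound (10 mM DMSO stock) in 50 mM PB at pH 7.4 was agitated 24 h at room temperature, then PTFE-filtered with centrifugation.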

[1] = target: T4, BCRP (BCRP-MDCKII monolayer) (Homo sapiens, UniProt Q9UNQ0); assay: MDCKII-BCRP bidirectional transport assay; assay type: in vitro ADME; details: for MDCK-BCRP: Papp A-B: apical to basolateral
T4 construct: host or cells: MDCKII (canine kidney) cells
T4 sequence (Q9UNQ0 1-655): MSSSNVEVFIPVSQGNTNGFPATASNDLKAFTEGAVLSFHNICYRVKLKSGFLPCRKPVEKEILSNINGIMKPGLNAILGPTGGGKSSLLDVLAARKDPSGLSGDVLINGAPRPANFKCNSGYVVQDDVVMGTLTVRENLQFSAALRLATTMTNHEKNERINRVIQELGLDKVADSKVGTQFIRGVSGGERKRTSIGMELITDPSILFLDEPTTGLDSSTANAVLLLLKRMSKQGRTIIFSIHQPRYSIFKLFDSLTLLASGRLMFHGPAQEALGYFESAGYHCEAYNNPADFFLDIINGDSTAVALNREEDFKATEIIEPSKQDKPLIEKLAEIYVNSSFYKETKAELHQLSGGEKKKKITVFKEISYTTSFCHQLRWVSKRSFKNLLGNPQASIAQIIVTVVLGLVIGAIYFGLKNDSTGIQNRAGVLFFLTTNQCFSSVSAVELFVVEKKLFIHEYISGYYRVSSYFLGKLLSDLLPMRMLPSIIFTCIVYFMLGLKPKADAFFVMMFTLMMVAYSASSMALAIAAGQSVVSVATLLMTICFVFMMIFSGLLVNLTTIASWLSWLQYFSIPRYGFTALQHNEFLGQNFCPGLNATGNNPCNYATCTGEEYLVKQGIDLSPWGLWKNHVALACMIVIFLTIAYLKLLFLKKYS
In short: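 Efflux ratios were derived from Papp values, alongside recovery, with compounds quantified by LC-MS/MS. Both directions were tested in duplicate across BCRP-MDCKII monolayers used on days 12–15. Incubation ran 120 min at 37° C, 5% CO2, after a 15 min preincubation in assay buffer.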

T1 sequence (P07333 20-972): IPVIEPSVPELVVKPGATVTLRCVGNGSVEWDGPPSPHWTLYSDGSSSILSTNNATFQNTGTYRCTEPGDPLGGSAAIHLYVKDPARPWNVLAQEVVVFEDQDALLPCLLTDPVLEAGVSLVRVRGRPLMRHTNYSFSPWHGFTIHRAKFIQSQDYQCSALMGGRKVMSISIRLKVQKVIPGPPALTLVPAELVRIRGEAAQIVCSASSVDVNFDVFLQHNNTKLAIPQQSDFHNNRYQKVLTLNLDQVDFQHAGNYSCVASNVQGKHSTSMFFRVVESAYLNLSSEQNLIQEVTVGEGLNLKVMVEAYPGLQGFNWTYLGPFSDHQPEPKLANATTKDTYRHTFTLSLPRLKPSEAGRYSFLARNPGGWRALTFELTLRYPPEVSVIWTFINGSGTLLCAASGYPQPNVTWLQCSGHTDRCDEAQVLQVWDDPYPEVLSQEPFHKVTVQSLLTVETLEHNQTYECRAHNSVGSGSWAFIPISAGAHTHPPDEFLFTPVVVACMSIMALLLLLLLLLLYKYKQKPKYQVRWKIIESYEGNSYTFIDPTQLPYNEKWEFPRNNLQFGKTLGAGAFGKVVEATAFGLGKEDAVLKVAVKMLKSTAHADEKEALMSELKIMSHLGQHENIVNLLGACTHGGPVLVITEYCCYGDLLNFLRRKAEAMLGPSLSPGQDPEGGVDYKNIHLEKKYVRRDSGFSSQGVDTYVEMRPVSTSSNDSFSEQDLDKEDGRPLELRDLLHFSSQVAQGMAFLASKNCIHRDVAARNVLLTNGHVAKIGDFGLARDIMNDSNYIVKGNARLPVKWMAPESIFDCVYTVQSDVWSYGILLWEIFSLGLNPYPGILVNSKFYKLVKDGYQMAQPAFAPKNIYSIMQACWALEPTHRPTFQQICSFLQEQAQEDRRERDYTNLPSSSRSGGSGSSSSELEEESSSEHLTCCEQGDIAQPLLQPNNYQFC
T3 sequence (P10721 26-976): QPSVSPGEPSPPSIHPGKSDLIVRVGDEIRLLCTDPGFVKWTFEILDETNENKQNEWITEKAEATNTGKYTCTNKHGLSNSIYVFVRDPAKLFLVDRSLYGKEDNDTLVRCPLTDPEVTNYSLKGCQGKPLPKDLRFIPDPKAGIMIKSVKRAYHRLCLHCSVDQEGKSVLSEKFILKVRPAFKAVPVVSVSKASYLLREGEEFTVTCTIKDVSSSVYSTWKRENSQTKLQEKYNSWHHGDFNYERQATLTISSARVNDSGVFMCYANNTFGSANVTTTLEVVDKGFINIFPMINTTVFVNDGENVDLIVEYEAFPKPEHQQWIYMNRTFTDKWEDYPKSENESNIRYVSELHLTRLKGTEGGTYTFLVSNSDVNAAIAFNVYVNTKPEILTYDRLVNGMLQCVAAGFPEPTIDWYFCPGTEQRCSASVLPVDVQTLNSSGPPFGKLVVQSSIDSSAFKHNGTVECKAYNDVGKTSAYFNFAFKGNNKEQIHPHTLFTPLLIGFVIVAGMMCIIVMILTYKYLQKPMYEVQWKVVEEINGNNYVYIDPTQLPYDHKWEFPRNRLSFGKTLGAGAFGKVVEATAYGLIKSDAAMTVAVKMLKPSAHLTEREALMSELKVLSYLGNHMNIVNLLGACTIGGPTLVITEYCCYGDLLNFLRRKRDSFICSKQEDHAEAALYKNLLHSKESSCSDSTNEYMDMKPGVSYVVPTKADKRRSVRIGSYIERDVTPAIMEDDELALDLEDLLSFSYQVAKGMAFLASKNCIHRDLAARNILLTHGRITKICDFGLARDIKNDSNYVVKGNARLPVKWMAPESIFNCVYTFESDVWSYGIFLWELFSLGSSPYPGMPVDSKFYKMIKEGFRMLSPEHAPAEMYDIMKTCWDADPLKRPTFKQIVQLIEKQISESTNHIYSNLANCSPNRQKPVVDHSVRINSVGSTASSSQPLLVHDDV
T2 sequence (P16234 24-1089): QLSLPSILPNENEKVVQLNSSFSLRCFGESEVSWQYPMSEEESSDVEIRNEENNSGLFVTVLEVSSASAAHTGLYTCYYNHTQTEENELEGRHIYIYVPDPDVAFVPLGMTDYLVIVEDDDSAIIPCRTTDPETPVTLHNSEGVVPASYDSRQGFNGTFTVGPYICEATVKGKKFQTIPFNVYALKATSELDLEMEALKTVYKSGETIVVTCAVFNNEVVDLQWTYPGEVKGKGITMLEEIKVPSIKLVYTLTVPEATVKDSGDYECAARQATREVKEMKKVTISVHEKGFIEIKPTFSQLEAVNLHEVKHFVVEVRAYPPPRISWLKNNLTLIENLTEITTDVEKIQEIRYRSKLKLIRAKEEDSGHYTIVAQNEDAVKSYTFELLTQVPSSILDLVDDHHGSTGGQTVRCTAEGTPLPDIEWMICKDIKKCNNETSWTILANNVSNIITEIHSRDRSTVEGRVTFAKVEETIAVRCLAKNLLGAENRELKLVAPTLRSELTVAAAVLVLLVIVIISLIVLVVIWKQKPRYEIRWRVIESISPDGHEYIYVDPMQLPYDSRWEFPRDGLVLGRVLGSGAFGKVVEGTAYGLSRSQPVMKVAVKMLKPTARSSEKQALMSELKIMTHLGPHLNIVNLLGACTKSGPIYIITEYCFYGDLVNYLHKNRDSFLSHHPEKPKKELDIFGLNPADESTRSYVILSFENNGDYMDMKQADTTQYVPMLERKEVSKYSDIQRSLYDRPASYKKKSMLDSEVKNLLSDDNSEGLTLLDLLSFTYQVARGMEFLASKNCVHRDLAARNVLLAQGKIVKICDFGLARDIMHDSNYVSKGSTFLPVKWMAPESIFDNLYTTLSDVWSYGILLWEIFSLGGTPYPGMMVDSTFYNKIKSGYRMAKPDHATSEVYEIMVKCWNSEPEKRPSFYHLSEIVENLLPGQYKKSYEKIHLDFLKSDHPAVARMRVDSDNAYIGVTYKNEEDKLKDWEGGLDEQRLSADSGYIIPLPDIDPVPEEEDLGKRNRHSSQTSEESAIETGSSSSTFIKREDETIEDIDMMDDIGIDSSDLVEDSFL

Compound | IC50 (CSF-1R) [nM] | IC50 (PDGFRα) [nM] | IC50 (wtKIT) [nM] | Solubility (μM) (Kinetic solubility assay) | MDCK-BCRP: Efflux Ratio [1] | MDCK-BCRP: Papp A-B [1]
O=C(Nc1cc(-c2noc([C@H]3C[C@@H]3F)n2)ccc1Cl)c1cnc2ccccn12 [Compound I-341] | ≤ 50 | 50 to 500 | ≤ 50 | **** (a solubility less than or equal to 2 μM) | 0.84 | 10.1 10^−6 cm/s
COC(=O)N1CC(c2nc(-c3ccc(C(F)F)c(NC(=O)c4cnc5ccccn45)c3)no2)C1 [Compound I-225] | 50 to 500 | 5000 to 30000 | ≤ 50 | ** (a solubility greater than 10 μM and less than or equal to 50 μM) | 3.27 | 11.2 10^−6 cm/s
Cc1ccc(-c2noc(C3CN(C(=O)CO)C3)n2)cc1NC(=O)c1cnc2ccccn12 [Compound I-287] | 5000 to 30000 | 5000 to 30000 | 50 to 500 | *** (a solubility greater than 2 μM and less than or equal to 10 μM) | 0.65 | 11.8 10^−6 cm/s
Cc1ccc(-c2noc(C3COC3)n2)cc1NC(=O)c1cnc2ccccn12 [Compound I-138] | ≤ 50 | 500 to 5000 | ≤ 50 | **** (a solubility less than or equal to 2 μM) | 5.11 | 10.4 10^−6 cm/s
Cc1ccc(-c2noc([C@H]3C[C@@H]3F)n2)cc1NC(=O)c1cnc2cc(OC(C)C)ccn12 [Compound I-88] | ≤ 50 | 50 to 500 | ≤ 50 | **** (a solubility less than or equal to 2 μM) | 0.89 | 29 10^−6 cm/s
Cc1ccc(-c2noc([C@H](C)O)n2)cc1NC(=O)c1cnc2ccccn12 [Compound I-271] | 50 to 500 | 500 to 5000 | ≤ 50 | * (a solubility greater than 50 μM) | 29.6 | 1.25 10^−6 cm/s
Cc1ccc(-c2noc([C@H]3C[C@@H]3F)n2)cc1NC(=O)c1cnc2cc(N3CCC3)ccn12 [Compound I-295] | ≤ 50 | ≤ 50 | ≤ 50 | **** (a solubility less than or equal to 2 μM) | 1.58 | 6.12 10^−6 cm/s
CCCNc1ccn2c(C(=O)Nc3cc(-c4noc([C@H]5C[C@@H]5F)n4)ccc3C)cnc2c1 [Compound I-304] | ≤ 50 | ≤ 50 | ≤ 50 | **** (a solubility less than or equal to 2 μM) | 3.43 | 5.05 10^−6 cm/s
Cc1ccc(-c2noc([C@H]3C[C@@H]3F)n2)cc1NC(=O)c1cnc2ccc(F)cn12 [Compound I-288] | 50 to 500 | 500 to 5000 | ≤ 50 | **** (a solubility less than or equal to 2 μM) | 1.01 | 7.81 10^−6 cm/s
Cc1ccc(-c2noc(C3CCS(=O)(=O)N3)n2)cc1NC(=O)c1cnc2ccccn12 (racemic) [Compound I-330] | ≤ 50 | 50 to 500 | ≤ 50 | ** (a solubility greater than 10 μM and less than or equal to 50 μM) | 24.9 | 1.28 10^−6 cm/s
Cc1ccc(-c2noc(C3CC(F)C3)n2)cc1NC(=O)c1cnc2ccccn12 (stereo not drawn) [Compound I-381] | ≤ 50 | 50 to 500 | ≤ 50 | **** (a solubility less than or equal to 2 μM) | 1.25 | 10.1 10^−6 cm/s
Cc1ccc(-c2noc([C@H]3CCC(=O)N3)n2)cc1NC(=O)c1cnc2ccccn12 (racemic) [Compound I-327] | ≤ 50 | 5000 to 30000 | 50 to 500 | * (a solubility greater than 50 μM) | 73.2 | 0.28 10^−6 cm/s
